The test system of series [1] is U2OS. As to the kind of experiment: Activation of Wnt-3a/Dkk-1 expressed in human U2OS cells at 20 uM by TCF-luciferase assay relative to control. The series is classed as cell-based.
Series [2] is described as follows: Activation of Wnt-3a/Dkk-1 expressed in human U2OS cells by TCF-luciferase assay. The series is classed as cell-based.
Series [3] in a line: Permeability by PAMPA. The series is classed as ADME. The conditions noted are these: read-out: permeability. Background: PAMPA measures passive passage across an artificial lipid membrane.
A short description of series [4]: Aqueous solubility of the compound. The series is classed as physicochemical.
Series [5] is described as follows: Metabolic stability in rat liver microsomes. The series is classed as ADME, Microsome. Background: Microsomes from liver hold many membrane-bound enzymes, among them those of drug oxidation.
Series [6] concerns Mus musculus. Description: Osteogenic activity in wild type C57BL/6 mouse calvaria in vivo assessed as increase in mineral apposition rate at 0.1 mg/kg/day by histomorphometry measurement.
The subject of series [7] is Mus musculus. Description: Osteogenic activity in wild type C57BL/6 mouse calvaria in vivo assessed as increase in mineral apposition rate at 0.03 mg/kg/day by histomorphometry measurement.
The nature of series [8]: Inhibition of Wnt-3a/Dkk-1-mediated [32P]GSk3beta phosphorylation in human U2OS cells at 20 uM by TCF-luciferase assay relative to control. Type of series: cell-based.
In series [9] the test system is Mus musculus. Description: Osteogenic activity in wild type C57BL/6 mouse calvaria in vivo assessed as non phosphorylated beta-catenin at 1 mg/kg/day by immunohistochemistry.
Series [10] concerns Mus musculus. Description: Osteogenic activity in wild type C57BL/6 mouse calvaria in vivo assessed as non phosphorylated beta-catenin at 0.3 mg/kg/day by immunohistochemistry.

≈ marks a conversion by molar mass, not a printed value. Calls of active or inactive are those of the source. No cut-off for these calls is given here.

In general, EC50 refers to the concentration giving half of the maximal effect. A word on the solubility: it is the dissolved amount per volume that the medium holds. Low readings indicate little dissolved substance, high ones much dissolved substance. As a reminder, the half-life is how long it takes for the measured level to halve. A low value points to fast loss. By IC50 is commonly meant the concentration that gives 50% inhibition. A low value points to greater potency.

`C#CCn1cnc(C[C@@H](CO)Nc2nccc(-c3cc4ccccc4s3)n2)c1`: the fold change (FC) in series [1] came to 3. Further, the half-maximal effective concentration (EC50) in series [2] came to 14.6 µM.

Compound `OC[C@H](Cc1cn(Cc2cc(F)cc(F)c2)cn1)Nc1nccc(-c2cc3ccccc3s2)n1` registered a fold change (FC) in series [1] of 1.7. The compound further gave a 50% effective concentration (EC50) in series [2] of 16 µM.

As for `c1ccc2cc(-c3ccnc(NCCc4c[nH]cn4)n3)ccc2c1`, in series [1], the fold change (FC) amounted to 1.1. Further, the response in series [2] was half-maximal at 12.1 µM (EC50).

With `c1cncc(-c2ccnc(NCCCn3ccnc3)n2)c1`, the fold change (FC) in [1] amounted to 4.7. Further, in series [2], it took 8.8 µM to reach a half-maximal effect (EC50).

As for `Cc1[nH]c2ccc(O)cc2c1CCNc1nccc(-c2cccnc2)n1`, the fold change (FC) in series [1] is 5.1. This compound yielded a concentration giving a half-maximal response (EC50) in [2] of 12.2 µM.

On to `c1cncc(-c2ccnc(NCCc3c[nH]c4ccccc34)n2)c1`, for which the fold change (FC) in series [1] is 10. In addition, the response in series [2] was half-maximal at 4.1 µM (EC50).

`NC(=O)Cn1cnc(C[C@@H](CO)Nc2nccc(-c3ccc4ccccc4c3)n2)c1`: the fold change (FC) in series [1] amounted to 3.9.

In series [1], `c1cncc(-c2ccnc(NCCc3c[nH]cn3)n2)c1` yielded a fold change (FC) of 3.1. Also, the EC50 in series [2] was found to be 28.8 µM.

The compound `CCOC[C@H](Cc1c[nH]cn1)Nc1nccc(-c2ccc3ccccc3c2)n1` returned a fold change (FC) in [1] of 1.9. Moreover, in series [2], the EC50 worked out at 14.4 µM.

With `c1ccc2sc(-c3ccnc(NCCc4c[nH]cn4)n3)cc2c1`, the fold change (FC) in [1] came to 3.7. In series [2], this compound showed an EC50 of 3.3 µM.

In [1], `c1cc(CCNc2nccc(-c3ccncc3)n2)ccn1` gave a fold change (FC) of 4.3. The EC50 in series [2] amounted to 6.8 µM.

With `OC[C@H](Cc1cn(Cc2cc(F)cc(F)c2)cn1)Nc1nccc(-c2ccc3ccccc3c2)n1`, in series [1], the fold change (FC) amounted to 2.

Turning to `c1cncc(CCNc2nccc(-c3ccncc3)n2)c1`, the fold change (FC) in series [1] came out at 2.8. In addition, the midpoint of the response in series [2], the EC50, lay at 4.6 µM.

Consider `OC[C@H](Cc1c[nH]cn1)Nc1nccc(-c2ccc3ccccc3c2)n1`, for which the fold change (FC) in series [1] is 4.9. The EC50 in series [2] is 6.8 µM. Besides, in [3], the Papp turned out to be 0.13 ×10⁻⁶ cm/s. The compound further showed a solubility in series [4] of 65 µg/mL (≈ 188 µM). In addition, the half-life in [5] was ≥ 1.33 h. Further, the outcome in series [6] and in series [7] was Active.

Compound `N#CCCn1cnc(C[C@@H](CO)Nc2nccc(-c3ccc4ccccc4c3)n2)c1` yielded a fold change (FC) in [1] of 5.5.

As to `Cc1cc(C)n(CCCNc2nccc(-c3ccncc3)n2)n1`, in [1], the fold change (FC) is 2.1. The compound also gave an EC50 in series [2] of 29.6 µM.

Regarding `c1cc(-c2ccnc(NCCCn3ccnc3)n2)ccn1`, the fold change (FC) in series [1] was found to be 2.9. In [2], the EC50 came to 4.2 µM. This compound also gave an IC50 in series [8] of 51 µM. For the same compound, the result in series [9], in [10], in series [6] and in series [7] was Active.

Consider `O=[N+]([O-])c1cccc(-c2ccnc(NCCCn3ccnc3)n2)c1`, for which the fold change (FC) in series [1] came out at 3.6. For the same compound, the EC50 in [2] turned out to be 46.3 µM.

Take `c1ccc2c(CCNc3nccc(-c4ccncc4)n3)c[nH]c2c1`: the fold change (FC) in series [1] is 7.5. Further, in [2], a half-maximal response (EC50) required 2.7 µM.

Compound `C#CCOC[C@H](Cc1c[nH]cn1)Nc1nccc(-c2cc3ccccc3s2)n1` displayed a fold change (FC) in series [1] of 3.5.

Consider `Fc1c(COC[C@H](Cc2c[nH]cn2)Nc2nccc(-c3ccc4ccccc4c3)n2)cccc1C(F)(F)F`, for which the fold change (FC) in series [1] came out at 1.6. The compound further had an EC50 in series [2] of 10.9 µM.

Take `C=C1CCCCC1OC[C@H](Cc1c[nH]cn1)Nc1nccc(-c2ccc3ccccc3c2)n1` (stereo partly drawn): the fold change (FC) in series [1] turned out to be 2.2. This compound also came in with an EC50 in series [2] of 20.8 µM.

Consider `c1cncc(-c2ccnc(NCCc3ccncc3)n2)c1`, for which the fold change (FC) in [1] worked out at 3.4. This compound also showed an EC50 in series [2] of 20.2 µM.

The compound `N#CCCn1cnc(C[C@@H](CO)Nc2nccc(-c3cc4ccccc4s3)n2)c1` gave a fold change (FC) in series [1] of 4.1.

Values taken from ChEMBL document CHEMBL1153101, “Hit to lead studies on (hetero)arylpyrimidines--agonists of the canonical Wnt-beta-catenin cellular messaging system” (Bioorg Med Chem Lett, 2010).
